From patent US20170037028A1 (BAYER PHARMA AKTIENGESELLSCHAFT, priority 2013, published 2017) come the findings set out here.

Each structure is given as a SMILES string.

One may read the IC50 as the concentration needed to halve the response being measured.

The target of this assay is T1, GLUT1 (Homo sapiens, UniProt P11166).
T1 sequence (P11166 1-492): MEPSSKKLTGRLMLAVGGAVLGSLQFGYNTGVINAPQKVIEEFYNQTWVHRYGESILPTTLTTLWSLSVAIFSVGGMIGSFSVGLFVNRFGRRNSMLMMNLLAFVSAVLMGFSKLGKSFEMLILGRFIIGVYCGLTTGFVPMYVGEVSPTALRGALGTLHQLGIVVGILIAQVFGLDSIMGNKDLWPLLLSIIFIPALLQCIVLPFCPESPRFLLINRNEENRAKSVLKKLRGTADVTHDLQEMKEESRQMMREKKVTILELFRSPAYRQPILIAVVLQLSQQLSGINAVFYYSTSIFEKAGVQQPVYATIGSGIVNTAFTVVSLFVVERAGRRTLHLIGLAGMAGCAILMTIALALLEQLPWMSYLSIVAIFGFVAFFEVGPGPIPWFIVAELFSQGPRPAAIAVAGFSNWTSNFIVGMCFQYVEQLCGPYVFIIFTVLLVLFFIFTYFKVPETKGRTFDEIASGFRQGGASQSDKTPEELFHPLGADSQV
Briefly: Indirect measurement of GLUT1 activity by quantification of intracellular ATP levels (glucose induced ATP increase). To be noted: read-out: IC50 regarding glucose induced ATP increase (GLUT1 inhibition). On the set-up: endogenous in cells; host or cells: DLD1 or CHO-K1. The assay is classed as cell-based. In short, it runs like this: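 DLD1 or CHO-K1 cells were starved overnight in glucose-free medium with 1% FCS, then combined with an oxidative phosphorylation inhibitor. GLUT1 activity was read as glucose-induced ATP increase, GLUT2 as fructose-induced. Intracellular ATP was quantified by CellTiter-Glo luminescence.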
As to `CCc1nn(Cc2ccc(C#N)cc2)c(CC)c1NC(=O)c1cc(C(N)=O)nc2cc(F)c(Cl)cc12` [Example 311, 6-chloro-N^4-[1-(4-cyanobenzyl)-3,5-diethyl-1H-pyrazol-4-yl]-7-fluoroquinoline-2,4-dicarboxamide], the IC50 came out at 6 nM.
For `CCc1nn(Cc2ccc(C#N)cc2)c(CC)c1NC(=O)c1cc(C(N)=O)nc2cc(F)ccc12` [Example 312, N^4-[1-(4-cyanobenzyl)-3,5-diethyl-1H-pyrazol-4-yl]-7-fluoroquinoline-2,4-dicarboxamide] the value was 35.5 nM; for `CCc1nn(Cc2ccc(C#N)cc2)c(CC)c1NC(=O)c1cc(C(N)=O)nc2cc(Cl)ccc12` [Example 313, 7-chloro-N^4-[1-(4-cyanobenzyl)-3,5-diethyl-1H-pyrazol-4-yl]quinoline-2,4-dicarboxamide], 185 nM; for `CCc1c(NC(=O)c2cc(C(N)=O)nc3cc(F)c(Cl)cc23)c(C(F)(F)F)nn1Cc1ccc(C#N)cc1` [Example 314, 6-chloro-N^4-[1-(4-cyanobenzyl)-5-ethyl-3-(trifluoromethyl)-1H-pyrazol-4-yl]-7-fluoroquinoline-2,4-dicarboxamide], 1.6 nM.
With `CCc1c(NC(=O)c2cc(C(N)=O)nc3cc(F)ccc23)c(C(F)(F)F)nn1Cc1ccc(C#N)cc1` [Example 315, N^4-[1-(4-cyanobenzyl)-5-ethyl-3-(trifluoromethyl)-1H-pyrazol-4-yl]-7-fluoroquinoline-2,4-dicarboxamide] the figure was 16 nM; with `CCc1c(NC(=O)c2cc(C(N)=O)nc3cccc(F)c23)c(C(F)(F)F)nn1Cc1ccc(C#N)cc1` [Example 316, N^4-[1-(4-cyanobenzyl)-5-ethyl-3-(trifluoromethyl)-1H-pyrazol-4-yl]-5-fluoroquinoline-2,4-dicarboxamide], 19.8 nM; with `CC(C)c1c(NC(=O)c2cc(C(N)=O)nc3ccccc23)c(C(F)(F)F)nn1Cc1ccc(C#N)cc1` [Example 317, N^4-[1-(4-cyanobenzyl)-5-isopropyl-3-(trifluoromethyl)-1H-pyrazol-4-yl]quinoline-2,4-dicarboxamide], 1050 nM.
With `CC(C)c1c(NC(=O)c2cc(C(N)=O)nc3cc(F)ccc23)c(C(F)(F)F)nn1Cc1ccc(C#N)cc1` [Example 318, N^4-[1-(4-cyanobenzyl)-5-isopropyl-3-(trifluoromethyl)-1H-pyrazol-4-yl]-7-fluoroquinoline-2,4-dicarboxamide] the figure was 352 nM; with `CC(C)c1nn(Cc2ccc(C#N)cc2)c(C(F)(F)F)c1NC(=O)c1cc(C(N)=O)nc2ccccc12` [Example 319, N^4-[1-(4-cyanobenzyl)-3-isopropyl-5-(trifluoromethyl)-1H-pyrazol-4-yl]quinoline-2,4-dicarboxamide], 1 nM.
On to `CC(C)c1nn(Cc2ccc(C#N)cc2)c(C(F)(F)F)c1NC(=O)c1cc(C(N)=O)nc2cc(F)ccc12` [Example 320, N^4-[1-(4-cyanobenzyl)-3-isopropyl-5-(trifluoromethyl)-1H-pyrazol-4-yl]-7-fluoroquinoline-2,4-dicarboxamide], for which the IC50 was found to be 8 nM.
With `Cc1c(NC(=O)c2cc(C(N)=O)nc3cc(F)ccc23)c(C(C)C)nn1Cc1ccc(C#N)cc1` [Example 321, N^4-[1-(4-cyanobenzyl)-3-isopropyl-5-methyl-1H-pyrazol-4-yl]-7-fluoroquinoline-2,4-dicarboxamide] the figure was 7.2 nM; with `Cc1c(NC(=O)c2cc(C(N)=O)nc3ccccc23)c(C(C)C)nn1Cc1ccc(C#N)cc1` [Example 322, N^4-[1-(4-cyanobenzyl)-3-isopropyl-5-methyl-1H-pyrazol-4-yl]quinoline-2,4-dicarboxamide], 1.9 nM; with `Cc1nn(Cc2ccc(C#N)cc2)c(C(C)C)c1NC(=O)c1cc(C(N)=O)nc2ccccc12` [Example 323, N^4-[1-(4-cyanobenzyl)-5-isopropyl-3-methyl-1H-pyrazol-4-yl]quinoline-2,4-dicarboxamide], 39.4 nM.
With `Cc1c(NC(=O)c2cc(C(N)=O)nc3cc(F)c(Cl)cc23)c(C(C)C)nn1Cc1ccc(C#N)cc1` [Example 324, 6-chloro-N^4-[1-(4-cyanobenzyl)-3-isopropyl-5-methyl-1H-pyrazol-4-yl]-7-fluoroquinoline-2,4-dicarboxamide] the figure was 1.9 nM.
With `CCc1nn(Cc2ccc(C#N)cc2)c(C)c1NC(=O)c1cc(C(N)=O)nc2ccccc12` [Example 325, N^4-[1-(4-cyanobenzyl)-3-ethyl-5-methyl-1H-pyrazol-4-yl]quinoline-2,4-dicarboxamide] the figure was 3.9 nM; with `CCc1c(NC(=O)c2cc(C(N)=O)nc3ccccc23)c(C)nn1Cc1ccc(C#N)cc1` [Example 326, N^4-[1-(4-cyanobenzyl)-5-ethyl-3-methyl-1H-pyrazol-4-yl]quinoline-2,4-dicarboxamide], 14.3 nM.
On to `CCc1nn(Cc2ccc(C#N)cc2)c(C)c1NC(=O)c1cc(C(N)=O)nc2cc(F)ccc12` [Example 327, N^4-[1-(4-cyanobenzyl)-3-ethyl-5-methyl-1H-pyrazol-4-yl]-7-fluoroquinoline-2,4-dicarboxamide], for which the IC50 was found to be 3.7 nM.
As to `Cc1c(NC(=O)c2cc(C(N)=O)nc3c(Cl)cccc23)c(C(F)(F)F)nn1Cc1ccc(C#N)cc1` [Example 338, 8-chloro-N^4-[1-(4-cyanobenzyl)-5-methyl-3-(trifluoromethyl)-1H-pyrazol-4-yl]quinoline-2,4-dicarboxamide], the IC50 amounted to 2.7 nM.
With `Cc1c(NC(=O)c2cc(C(=O)NCCCO)nc3cc(F)ccc23)c(C(F)(F)F)nn1Cc1ccc(C#N)cc1` [Example 341, N^4-[1-(4-cyanobenzyl)-5-methyl-3-(trifluoromethyl)-1H-pyrazol-4-yl]-7-fluoro-N^2-(3-hydroxypropyl)quinoline-2,4-dicarboxamide] the figure was 290 nM.
For `Cc1c(NC(=O)c2cc(C(=O)NCCN3CCOCC3)nc3cc(F)ccc23)c(C(F)(F)F)nn1Cc1ccc(C#N)cc1` [Example 342, N^4-[1-(4-cyanobenzyl)-5-methyl-3-(trifluoromethyl)-1H-pyrazol-4-yl]-7-fluoro-N^2-[2-(morpholin-4-yl)ethyl]quinoline-2,4-dicarboxamide] the value was 336 nM; for `Cc1cc2c(C(=O)Nc3c(C(F)(F)F)nn(Cc4ccc(C#N)cc4)c3C)cc(C(N)=O)nc2cc1F` [Example 343, N^4-[1-(4-cyanobenzyl)-5-methyl-3-(trifluoromethyl)-1H-pyrazol-4-yl]-7-fluoro-6-methylquinoline-2,4-dicarboxamide], 0.7 nM.
For `COCCNc1ccc2nc(C(N)=O)cc(C(=O)Nc3c(C(F)(F)F)nn(Cc4ccc(C#N)cc4)c3C)c2c1` [Example 344, N^4-[1-(4-cyanobenzyl)-5-methyl-3-(trifluoromethyl)-1H-pyrazol-4-yl]-6-[(2-methoxyethyl)amino]quinoline-2,4-dicarboxamide] the value was 5.8 nM.
For `Cc1c(NC(=O)c2cc(C(N)=O)nc3ccc(N4CCCCC4)cc23)c(C(F)(F)F)nn1Cc1ccc(C#N)cc1` [Example 345, N^4-[1-(4-cyanobenzyl)-5-methyl-3-(trifluoromethyl)-1H-pyrazol-4-yl]-6-(piperidin-1-yl)quinoline-2,4-dicarboxamide], the IC50 turned out to be 7.2 nM.
Consider `Cc1nn(CCCc2ccc(C#N)cc2)c(C)c1NC(=O)c1cc(C(N)=O)nc2cc(F)c(Cl)cc12` [Example 346, 6-chloro-N^4-{1-[3-(4-cyanophenyl)propyl]-3,5-dimethyl-1H-pyrazol-4-yl}-7-fluoroquinoline-2,4-dicarboxamide], for which the IC50 worked out at 0.6 nM.
For `Cc1nn(CCCc2ccc(C#N)cc2)c(C)c1NC(=O)c1cc(C(N)=O)nc2ccccc12` [Example 347, N^4-{1-[3-(4-cyanophenyl)propyl]-3,5-dimethyl-1H-pyrazol-4-yl}quinoline-2,4-dicarboxamide] the value was 2.2 nM; for `Cc1nn(CCCc2ccc(C#N)cc2)c(C)c1NC(=O)c1cc(C(F)(F)F)nc2ccc(Br)cc12` [Example 348, 6-bromo-N-{1-[3-(4-cyanophenyl)propyl]-3,5-dimethyl-1H-pyrazol-4-yl}-2-(trifluoromethyl)quinoline-4-carboxamide], 6.1 nM; for `COc1cc(C(=O)Nc2c(C)nn(CCCc3ccc(C#N)cc3)c2C)c2ccccc2n1` [Example 349, N-{1-[3-(4-cyanophenyl)propyl]-3,5-dimethyl-1H-pyrazol-4-yl}-2-methoxyquinoline-4-carboxamide], 15.7 nM.
For `Cc1nn(Cc2ccc(C#N)cn2)c(C)c1NC(=O)c1cc(C(N)=O)nc2ccc(Br)cc12` [Example 350, 6-bromo-N^4-{1-[(5-cyanopyridin-2-yl)methyl]-3,5-dimethyl-1H-pyrazol-4-yl}quinoline-2,4-dicarboxamide] the value was 1.1 nM.
As for `Cc1nn(Cc2ccc(C#N)cn2)c(C)c1NC(=O)c1cc(C(N)=O)nc2cc(F)c(Cl)cc12` [Example 351, 6-chloro-N^4-{1-[(5-cyanopyridin-2-yl)methyl]-3,5-dimethyl-1H-pyrazol-4-yl}-7-fluoroquinoline-2,4-dicarboxamide], the IC50 was 1.6 nM.
